Experimental data: US20260284240A1, “RADIOLABELED COMPOUND FOR USE IN A METHOD OF TREATING CARBONIC ANHYDRASE IX POSITIVE DISEASES” (DEBIOPHARM INTERNATIONAL S.A., priority 2023, published 2026)
Where two headings read alike, the source gives them in different places. Starred links: 1 amine or outer side, 2 acyl side, 3 side chain; linkers in the order of their positions; H or OH if unused. Positions of bridges follow the written chain, without caps; N, C: chain ends. Non-standard residues stand in square brackets, D forms with d. Residues, ends and D or L forms follow the SMILES beside them. *: point of attachment. Phe(3-NHCO(CH2)3SO2NH2) = N[C@@H](Cc1cccc(NC(=O)CCCS(N)(=O)=O)c1)C(=O)O; DOTA = O=C(O)CN1CCN(CC(=O)O)CCN(CC(=O)*)CCN(CC(=O)O)CC1; mXylylene = c1cc(C[*:1])cc(C[*:2])c1; X1 = O=C(CN1CCN([*:1])CC1)[*:2]

What was measured:
Assay type in all cases: in vivo, dog
[1] = GLP extended single-dose i.v. toxicity study in beagle dogs
Experimental: (§1) The following parameters and endpoints were evaluated: mortality, clinical observations, body weights, food consumption, body temperature, local reactions, ophthalmology, clinical pathology parameters (hematology, coagulation, clinical chemistry, and urinalysis), cardiovascular and respiratory safety pharmacology endpoints along with FOB evaluation, organ weights, and macroscopic and microscopic examinations, and TK parameters. The animals from subset A (3 males and 3 females per group) were sampled for toxicokinetics (TK) at: pre-dose, 5 min, 15 min, 30 min, 1 h, 2 h, 3 h and 6 h. Blood samples were collected in K2EDTA tubes. Plasma was prepared by centrifugation (2500 g for 10 minutes, +4° C.) within 1 hour after collection, and then frozen within 1 hour after centrifugation and stored at −80° C. […] Chromatographic separation was achieved using a Waters Acquity UPLC system with a Waters Acquity HSS T3 C18 2.1×50 mm, 1.8 μm column. Chromatography was conducted at 50° C. at a flow rate of 0.7 mL/min using a mobile phase consisting of A: 1% formic acid in acetonitrile, and B: 1% formic acid in water, according to the following linear gradient: 0 to 0.1 min: 90% B; 0.1 to 4.1 min: from 90% B to 74% B; 4.1 to 4.2 min: from 74% B to 5% B; 4.2 to 4.6 min: 5% B; 4.6 to 4.7 min: from 5% B to 90% B; 4.7-5.1 min; 90% B. Detection was performed using a Sciex AP16600 TOF mass spectrometer. Toxicokinetic parameters were estimated from concentration-time data using Phoenix pharmacokinetic software (version 6.4, Certara L.P.). A non-compartmental approach consistent with the bolus intravenous injection was used for parameter estimation.

[2] = Toxicokinetics in the dose range finding study in dogs (LC-HRMS plasma); details: for CL / Vss / t1/2 / Dose-normalized AUClast / AUClast / concentration at […]: dog plasma, i.v. bolus; for CL / Vss / t1/2 / AUClast / concentration at […]: mean n = 2; for Dose-normalized AUClast: AUClast divided by dose in μg/kg; for concentration at […]: iv, read-out: C15 min
Experimental: The following parameters and endpoints were evaluated: mortality, clinical observations, body weights, food consumption, local reactions, clinical pathology parameters (hematology, coagulation, and clinical chemistry), organ weights, and macroscopic examinations. Both animals were sampled for toxicokinetics (TK) on each dosing occasion (i.e., on day 1, day 5, day 9 and day 13) at: pre-dose, 15 min, 30 min, 1 h, 6 h and 24 h. Blood samples were collected in K2EDTA tubes. Plasma was prepared by centrifugation (2500 g for 10 minutes, +4° C.) within 1 hour after collection, and then frozen within 1 hour after centrifugation and stored at −80° C. […] Chromatographic separation was achieved using a Waters Acquity UPLC system with a Waters Acquity HSS T3 C18 2.1×50 mm, 1.8 μm column. Chromatography was conducted at 50° C. at a flow rate of 0.7 mL/min using a mobile phase consisting of A: acetonitrile, and B: 1% formic acid in water, according to the following linear gradient: 0 to 0.1 min: 90% B; 0.1 to 4.1 min: from 90% B to 74% B; 4.1 to 4.2 min: from 74% B to 5% B; 4.2 to 4.6 min: 5% B; 4.6 to 4.7 min: from 5% B to 90% B; 4.7-5.1 min; 90% B. Detection was performed using a Sciex AP16600 TOF mass spectrometer. Toxicokinetic parameters were estimated from concentration-time data using Phoenix pharmacokinetic software (version 6.4, Certara L.P.). A non-compartmental approach consistent with the bolus intravenous injection was used for parameter estimation. […] Neither in-life parameters nor clinical pathology parameters were affected. In addition, there were no related macroscopic observations noted at necropsy.

[3] = Toxicokinetics in the extended single-dose toxicity study in dogs; details: for concentration at 5 min: plasma, iv, read-out: C5 min; for concentration at 5 min / AUClast / CL / Vss: mean n = 3; for t1/2: harmonic mean
Experimental: as §1

[4] = female beagle dogs, single i.v. bolus 16 μg/kg
[5] = female beagle dogs, single i.v. bolus 80 μg/kg
[6] = female beagle dogs, single i.v. bolus 400 μg/kg
[7] = male beagle dogs, single i.v. bolus 16 μg/kg
[8] = male beagle dogs, single i.v. bolus 80 μg/kg
[9] = male beagle dogs, single i.v. bolus 400 μg/kg

## CC(C)C[C@@H]1NC(=O)[C@H](Cc2cccc(NC(=O)CCCS(N)(=O)=O)c2)NC(=O)[C@H](CC(=O)O)NC(=O)[C@H]2CCCN2C(=O)[C@H](CCC(=O)O)NC(=O)[C@@H](NC(=O)[C@H](CCC(N)=O)NC(=O)CN2CCN(C(=O)CN3CCN(CC(=O)O)CCN(CC(=O)O)CCN(CC(=O)O)CC3)CC2)CSCc2cccc(c2)CSC[C@@H](C(N)=O)NC(=O)[C@H](CO)NC(=O)[C@H](Cc2c[nH]c3ccccc23)NC(=O)[C@H]([C@@H](C)O)NC1=O [DPI-4452, DOTA-PPAc-Gln-[Cys(3MeBn)-Glu-pro-Asp-Af3(Cpsu)-Leu-Thr-Trp-Ser-Cys]-NH2] ({DOTA}-[X1]QCE[dP]D[Phe(3-NHCO(CH2)3SO2NH2)]LTWSC-NH2; linker 3-12 via mXylylene)
[1]; considering a 60 kg human
  Human equivalent dose of the dog NOAEL: 13.3 mg
[1]; dog, single i.v. 16, 80, 400 μg/kg
  Clinical signs or local reactions: no DPI-4452 treatment-related clinical signs or local reactions were observed
[1]; dog, single i.v. bolus up to 400 μg/kg
  Tolerability: well tolerated
[2]; Day 1, […], 1440 min
  CL: 11.7 mL/min/kg
  Vss: 0.22 L/kg
  t1/2: 15 min
[2]; Day 1, […]
  Dose-normalized AUClast: 1.36
[2]; Day 5, 0.08 mg/kg, 7200 min
  AUClast: 117 ng·h/mL
[2]; Day 5, 0.08 mg/kg
  Dose-normalized AUClast: 1.46
  concentration at […]: 156 ng/mL
[2]; Day 9, 0.4 mg/kg, 12960 min
  AUClast: 926 ng·h/mL
  CL: 6.83 mL/min/kg
  Vss: 0.24 L/kg
  t1/2: 29.4 min
[2]; Day 9, 0.4 mg/kg
  Dose-normalized AUClast: 2.31
  concentration at […]: 880 ng/mL
[2]; Day 13, 0.8 mg/kg, 18720 min
  AUClast: 3530 ng·h/mL
  CL: 3.52 mL/min/kg
  Vss: 0.32 L/kg
  t1/2: 52.8 min
[2]; Day 13, 0.8 mg/kg
  Dose-normalized AUClast: 4.42
  concentration at […]: 2000 ng/mL
[2]; dog, 25-800 μg/kg i.v.
  Dose proportionality of exposure: exposure increased more than dose-proportionally
[2]; Day 1, 0.025 mg/kg
  concentration at […]: 46.8 ng/mL
[3]; all dose levels
  Exposure difference between male and female dogs: No appreciable difference
[3]; dog, 400 μg/kg i.v.
  Mean AUCtlast at the NOAEL, females: 771 ng·h/mL
  Mean AUCtlast at the NOAEL, males: 854 ng·h/mL
[3]; dog, 0.08 mg/kg, female beagle dogs, single i.v. bolus 80 μg/kg
  concentration at 5 min: 346 ng/mL
[3]; dog, 0.08 mg/kg, male beagle dogs, single i.v. bolus 80 μg/kg
  concentration at 5 min: 332 ng/mL
[3]; dog, 0.4 mg/kg, female beagle dogs, single i.v. bolus 400 μg/kg
  concentration at 5 min: 1760 ng/mL
[3]; dog, 0.4 mg/kg, male beagle dogs, single i.v. bolus 400 μg/kg
  concentration at 5 min: 1840 ng/mL
[3]; dog, […], female beagle dogs, single i.v. bolus 16 μg/kg
  concentration at 5 min: 37.7 ng/mL
[3]; dog, […], male beagle dogs, single i.v. bolus 16 μg/kg
  concentration at 5 min: 43.5 ng/mL
[3]; [4]
  t1/2: 14.3 min
  AUClast: 12.4 ng·h/mL
  CL: 21.2 mL/min/kg
  Vss: 0.30 L/kg
[3]; [5]
  t1/2: 23.2 min
  AUClast: 144 ng·h/mL
  CL: 9.27 mL/min/kg
  Vss: 0.21 L/kg
[3]; [6]
  t1/2: 21.8 min
  CL: 8.63 mL/min/kg
  Vss: 0.19 L/kg
[3]; [7]
  t1/2: 15.5 min
  AUClast: 14.0 ng·h/mL
  CL: 18.3 mL/min/kg
  Vss: 0.26 L/kg
[3]; [8]
  t1/2: 21.7 min
  AUClast: 132 ng·h/mL
  CL: 10.1 mL/min/kg
  Vss: 0.21 L/kg
[3]; [9]
  t1/2: 23.7 min
  CL: 7.88 mL/min/kg
  Vss: 0.19 L/kg
